Laboratory results: article PMC2095803 (Nucleic Acids Research, 2007)

How the values were obtained:
[1] = biological target: Klenow(exo−) DNA polymerase (Escherichia coli, UniProt P00582, D355A/E357A); experiment: PEP termination assay; type: biochemical
[2] = biological target: Taq DNA polymerase (Thermus aquaticus, UniProt P19821); experiment: PEP termination assay; type: biochemical, Thermus aquaticus YT-1
[3] = biological target: AmpliTaqFS DNA polymerase (Thermus aquaticus, UniProt P19821, F667Y/G46D); experiment: PEP termination assay; type: biochemical, Thermus aquaticus YT-1
[4] = biological target: T1, Therminator II DNA polymerase (Thermococcus sp., UniProt Q56366, A485L/D141A/E143A/Y409V); experiment: PEP termination assay; type: biochemical, Thermococcus species 9ºN-7
T1 sequence (Q56366 1-775 D141A/E143A/Y409V/A485L): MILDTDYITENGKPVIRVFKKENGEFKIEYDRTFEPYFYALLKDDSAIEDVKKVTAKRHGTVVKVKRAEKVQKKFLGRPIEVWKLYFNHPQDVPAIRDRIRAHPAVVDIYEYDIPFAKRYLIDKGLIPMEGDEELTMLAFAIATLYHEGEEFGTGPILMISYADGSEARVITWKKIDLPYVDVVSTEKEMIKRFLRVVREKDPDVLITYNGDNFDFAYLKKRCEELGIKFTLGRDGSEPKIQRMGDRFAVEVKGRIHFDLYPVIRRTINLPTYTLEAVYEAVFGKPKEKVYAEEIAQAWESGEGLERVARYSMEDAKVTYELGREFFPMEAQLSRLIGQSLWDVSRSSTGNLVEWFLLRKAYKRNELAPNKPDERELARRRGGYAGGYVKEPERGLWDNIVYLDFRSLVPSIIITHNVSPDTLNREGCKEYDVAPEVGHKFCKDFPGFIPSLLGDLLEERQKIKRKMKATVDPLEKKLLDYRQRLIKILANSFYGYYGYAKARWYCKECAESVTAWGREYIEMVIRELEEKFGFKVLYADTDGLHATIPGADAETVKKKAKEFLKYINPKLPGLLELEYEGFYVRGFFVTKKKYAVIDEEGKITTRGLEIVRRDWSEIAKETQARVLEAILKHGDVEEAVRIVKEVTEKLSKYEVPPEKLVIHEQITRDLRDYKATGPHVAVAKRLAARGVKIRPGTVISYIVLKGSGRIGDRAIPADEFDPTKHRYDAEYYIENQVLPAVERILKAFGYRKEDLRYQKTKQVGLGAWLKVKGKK

[5] = biological target: T2, DeepVent(exo−) DNA polymerase (Pyrococcus sp. GB-D, UniProt Q51334, D141A/E143A); experiment: PEP termination assay; type: biochemical, Pyrococcus species GB-D
T2 sequence (Q51334 with tags, fused parts or gaps D141A/E143A): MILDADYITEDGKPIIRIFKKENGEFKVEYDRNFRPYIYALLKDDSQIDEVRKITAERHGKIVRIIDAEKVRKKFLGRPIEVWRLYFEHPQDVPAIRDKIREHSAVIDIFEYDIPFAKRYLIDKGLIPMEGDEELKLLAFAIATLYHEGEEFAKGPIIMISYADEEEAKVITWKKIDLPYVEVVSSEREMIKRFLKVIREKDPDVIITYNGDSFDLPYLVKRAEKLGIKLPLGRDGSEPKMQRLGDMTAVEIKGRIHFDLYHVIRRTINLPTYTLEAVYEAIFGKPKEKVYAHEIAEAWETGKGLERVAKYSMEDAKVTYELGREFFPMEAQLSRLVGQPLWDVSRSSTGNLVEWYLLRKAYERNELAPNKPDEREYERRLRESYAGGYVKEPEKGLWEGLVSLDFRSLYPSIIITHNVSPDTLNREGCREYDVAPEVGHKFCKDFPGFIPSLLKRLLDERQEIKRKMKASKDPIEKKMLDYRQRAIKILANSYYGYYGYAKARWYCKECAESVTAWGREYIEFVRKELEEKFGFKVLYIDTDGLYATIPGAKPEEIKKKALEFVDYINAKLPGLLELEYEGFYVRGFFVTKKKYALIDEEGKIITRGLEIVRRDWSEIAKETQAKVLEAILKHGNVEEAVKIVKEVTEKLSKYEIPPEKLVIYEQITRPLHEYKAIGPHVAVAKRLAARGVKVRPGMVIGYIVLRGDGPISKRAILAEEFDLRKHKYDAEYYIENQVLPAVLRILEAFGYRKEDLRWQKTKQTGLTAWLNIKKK

[6] = biological target: T3, Bst DNA polymerase (Geobacillus stearothermophilus, UniProt P52026); experiment: Oligonucleotide template assay; type: biochemical, Bacillus stearothermophilus; conditions: Bst; final concentration of 200 nM
T3 sequence (P52026 289-876 limits assumed): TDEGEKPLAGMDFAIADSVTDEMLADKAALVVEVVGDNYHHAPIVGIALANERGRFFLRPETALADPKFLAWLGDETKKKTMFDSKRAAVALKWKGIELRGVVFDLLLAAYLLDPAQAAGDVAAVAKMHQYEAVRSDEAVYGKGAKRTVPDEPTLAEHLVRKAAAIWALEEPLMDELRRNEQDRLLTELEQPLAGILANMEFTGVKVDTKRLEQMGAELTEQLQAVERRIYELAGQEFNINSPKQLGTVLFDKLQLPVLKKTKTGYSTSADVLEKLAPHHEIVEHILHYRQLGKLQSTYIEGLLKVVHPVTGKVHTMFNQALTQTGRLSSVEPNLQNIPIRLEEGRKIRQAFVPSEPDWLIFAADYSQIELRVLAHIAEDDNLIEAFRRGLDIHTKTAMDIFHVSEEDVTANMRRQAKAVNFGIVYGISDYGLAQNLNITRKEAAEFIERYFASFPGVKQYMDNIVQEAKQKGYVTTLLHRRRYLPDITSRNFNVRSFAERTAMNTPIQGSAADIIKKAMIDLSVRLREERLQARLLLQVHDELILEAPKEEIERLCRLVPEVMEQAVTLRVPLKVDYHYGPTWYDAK

[7] = biological target: T3, Bst DNA polymerase; experiment: Five-base CRT sequencing experiment on solid support; type: biochemical, Bacillus stearothermophilus
[8] = Klenow(exo−), 25× IC50, oligoTemplate-3

Chain of Taq DNA polymerase (P19821 whole entry): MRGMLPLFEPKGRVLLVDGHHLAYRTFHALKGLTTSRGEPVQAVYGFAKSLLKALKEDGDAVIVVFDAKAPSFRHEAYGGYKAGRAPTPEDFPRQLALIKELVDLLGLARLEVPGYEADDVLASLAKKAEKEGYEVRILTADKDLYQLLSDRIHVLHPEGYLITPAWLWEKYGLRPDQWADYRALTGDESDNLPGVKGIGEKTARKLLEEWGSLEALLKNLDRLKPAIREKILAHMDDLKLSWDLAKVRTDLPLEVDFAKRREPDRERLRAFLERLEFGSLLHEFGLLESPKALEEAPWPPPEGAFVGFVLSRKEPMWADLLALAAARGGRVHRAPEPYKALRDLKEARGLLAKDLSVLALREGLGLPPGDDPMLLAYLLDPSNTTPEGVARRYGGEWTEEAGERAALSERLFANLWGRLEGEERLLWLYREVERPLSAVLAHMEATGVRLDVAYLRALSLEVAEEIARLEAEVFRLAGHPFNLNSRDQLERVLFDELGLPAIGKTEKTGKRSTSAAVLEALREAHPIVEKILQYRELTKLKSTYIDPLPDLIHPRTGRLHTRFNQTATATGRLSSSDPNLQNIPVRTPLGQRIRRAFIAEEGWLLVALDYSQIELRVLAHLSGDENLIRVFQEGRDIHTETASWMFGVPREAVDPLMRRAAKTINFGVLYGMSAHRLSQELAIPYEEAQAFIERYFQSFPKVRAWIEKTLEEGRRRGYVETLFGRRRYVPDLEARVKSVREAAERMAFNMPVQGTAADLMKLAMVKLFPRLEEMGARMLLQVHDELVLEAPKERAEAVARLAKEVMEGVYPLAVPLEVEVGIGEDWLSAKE
Chain of AmpliTaqFS DNA polymerase (P19821 whole entry G46D/F667Y): as the sequence (P19821 whole entry) above, with G46D, F667Y counted along it

## O=[N+]([O-])c1ccccc1CNc1ncnc2c1ncn2[C@H]1C[C@H](O)[C@@H](COP(=O)(O)OP(=O)(O)OP(=O)(O)O)O1 [Compound IIIc, N^6-(2-Nitrobenzyl)-2’-deoxyadenosine-5’-triphosphate]
[1]
  IC50: 4.3 nM
[1]; [8]
  % 1st Base: 76.1 ± 1.8%
  % 2nd Base: 6.2 ± 0.5%
  % Primer: 17.7 ± 2.2%
[2]
  IC50: 300 nM
[2]; Taq, 25× IC50, oligoTemplate-3
  % 1st Base: 98.7 ± 0.4%
  % 2nd Base: <0.1%
  % Primer: 1.3 ± 0.4%
[3]
  IC50: 350 nM
[4]
  IC50: 30 nM
[5]
  IC50: 11 nM
[6]
  Incorporation / termination of DNA synthesis: efficient, base-specific termination of DNA synthesis
[7]
  Share of total signal derived from the correct +1 product: ≥ 80%
[7]; S = (Ceff)^RL, five-base read
  Estimated signal S: 68.4%
[7]; at cycle five
  Signal for the correct +1 product (T × C): 40%
[7]; first cycle, on a solid support, 250 nM, Bst
  Incorporation efficiency (I): 98.6%
[7]; first cycle, on a solid support, 365 nm light
  Deprotection efficiency (D): 94%
[7]; first cycle, product of I and D, on a solid support
  Cycle efficiency (Ceff): 92.7%
